Test results taken from article PMC6890717, “Conversion of Cytochrome P450 2D6 of Human Into a FRET-Based Tool for Real-Time Monitoring of Ajmalicine in Living Cells” (Frontiers in Bioengineering and Biotechnology, 2019).

Key:
E. coli BL21(DE3) cells = assay: Real-time monitoring of ajmalicine in bacterial cells expressing FLIP-Ajn; assay type: cell-based, Escherichia coli; details: 10 mM ajmalicine added externally; increased from 0.2; 30 min recording
Description: The developed recombinant construct pRSET-B_ECFP_CYP2D6_Venus (FLIP-Ajn) was introduced in E. coli BL21(DE3) cells and grown at 37°C (150 rpm) in an incubator shaker until O.D.600 of the bacterial growth reached 0.6. The cells were then treated with 0.5 mM IPTG and kept for 24 h at 21°C with continuous shaking for the expression of the nanosensor protein. The real-time monitoring of ajmalicine in the bacterial cells was carried out by the addition of 10 mM ajmalicine to the bacterial culture placed in the multi-well plates. Ratio of emission intensities of Venus/ECFP were recorded for 30 min and data were collected at every 5 min intervals. The control experiment includes the bacterial cells without ajmalicine. The excitation filters/slits used were same as described in the previous analysis.

[1] = test system: Saccharomyces cerevisiae/URA3 strain BY4247; assay: Real-time monitoring of ajmalicine in yeast cells expressing FLIP-Ajn (confocal); assay type: cell-based; details: 10 mM ajmalicine
Description: Gateway-cloned pYES-DEST_ECFP_CYP2D6_Venus was transformed in Saccharomyces cerevisiae/URA3 strain BY4247. The transformed yeast cells were cultured in synthetic defined (SD) medium containing dextrose (2%) as a source of carbon and galactose (1%) for induction. The expressed yeast cells were subjected to confocal microscopic analysis with Leica TCS-SPE scan head and 63x objective lens with oil immersion system. The expressed culture was provided with 10 mM ajmalicine. Ratio of emission intensities of Venus/ECFP were recorded for 10 min and data were collected at every 20 s intervals.

HEK-293T cells = assay: Real-time monitoring of ajmalicine in transfected animal cells (confocal); assay type: cell-based, human; details: 10 mM ajmalicine; 0.4 ± 0.05 at 0 s
Description: The HEK-293T (human embryonic kidney) cells were cultured in Dulbecco's modified Eagle's medium containing 50 μg/ml ampicillin, 10% fetal calf serum, and CO2 in an incubator shaker at 37°C. Calcium phosphate-mediated transient transfection of HEK-293T cells with pCDNA_ECFP_CYP2D6_Venus was carried out in a 6-well culture plate and was allowed to express for 2 days. Washing buffer comprised of 50 mM NaCl, 1 mM MgCl2, 5 mM KCl, 5 mM D-glucose, and 25 mM HEPES (pH 7.2–7.4). After a gap of 2 days after transfection, the cultured cells were set for imaging analysis using a confocal microscope with 1.53 numerical aperture, cooled charge-coupled camera, and 63x oil immersion objective lens. The culture was supplemented with 10 mM ajmalicine and the images were taken. Ratio of emission intensities of Venus/ECFP were recorded for 10 min. The laser setting used for the analysis was same for both yeast and animal cells. Data were collected after an interval of 20 s and the exposure time set for acquiring images was 300 ms.

[2] = test system: Catharanthus roseus cells; assay: FRET ratio in transformed plant suspension culture (confocal); assay type: cell-based; details: slow and consistent addition of ajmalicine to suspension culture; increased from 0.7
Description: Leaf explants were used in the study for initiating callus. The segments of Catharanthus roseus leaves were collected from the herbal garden of Jamia Hamdard, New Delhi. The collected explants were then washed continuously for 20 min under tap water. The explants were then treated with 0.5% cetrimide and 0.1% HgCl2 for 10 and 5 min, respectively. Further sequential washing with 70% alcohol and sterilized distilled water for 1 min were performed. The culturing of sterile explants was done on MS (Murashige and Skoog, [1962]) medium containing 0.5 μM 2,4-D, 3% sucrose, and 0.62% agar. The pH of the medium was maintained to 5.65, and the cultured tubes were kept in a culture room at 25 ± 2°C.
Agrobacterium tumefaceins strain EHA105 were transformed with pEarleyGate100_ECFP_CYP2D6_Venus, and the suspension culture was initiated after inoculating a single colony of transformed Agrobacterium strain in LB medium. The medium was supplemented with […], and […], and the culture was maintained at 28°C for 36 h. […]
Suspension culture of Catharanthus roseus transformed with pEarleyGate100_ECFP_CYP2D6_Venus was observed under a Leica confocal microscope with a 10x objective. The culture was subjected to fluorescence analysis, and the ratio of Venus/ECFP emission intensities was recorded after excitation at 430 nm. […]

[3] = test system: FLIP-Ajn (ECFP_CYP2D6_Venus, human Cytochrome P450 2D6); assay: Specificity analysis of FLIP-Ajn with CYP2D6 inhibitors/substrates (FRET ratio); details: 10 mM compound added to FLIP-Ajn; change <0.2 regarded as insignificant
Description: Characterization of nanosensor was performed using microplate reader (Synergy H1, Biotek, USA). […] After spectral analysis, pH dependence, specificity, and affinity of the nanosensor were studied. […] Specificity testing of the developed nanosensor was carried out by the addition of 10 mM of various CYP2D6 inhibitors/substrates to FLIP-Ajn.

SMILES	FRET ratio after addition of ajmalicine (E. coli BL21(DE3) cells)	increased FRET ratio ([1]; Figure 8)	FRET ratio after addition of ajmalicine ([1]; increased from 0.65 within 10 min)	FRET ratio at 400 s (HEK-293T cells)	FRET ratio after addition of ajmalicine [2]	FRET ratio change relative to control [3]
COC(=O)C1=CO[C@@H](C)[C@H]2CN3CCc4c([nH]c5ccccc45)[C@@H]3C[C@H]12 [ajmalicine]	0.4	~ 1	1.61	0.85 ± 0.05	3.9	
COC(=O)C1=CO[C@@H](C)[C@H]2Cn3ccc4c5ccccc5nc-4c3C[C@H]12 [serpentine]						~ 0.14
